# Values of other authors as cited in patent publication US20210205417A1, “PH 7 INJECTABLE SOLUTION COMPRISING AT LEAST ONE BASAL INSULIN OF WHICH THE PI IS FROM 5.8 TO 8.5 AND A CO-POLYAMINO ACID BEARING CARBOXYLATE CHARGES AND HYDROPHOBIC RADICALS AND A LIMITED AMOUNT OF M-CRESOL” (ADOCIA, priority 2018, published 2021).
# Conditions: patients
substance,measurement,value
insulin glargine,period over which the hypoglycemic effect is almost constant,24 h
